Read-outs that look alike come from different tables or passages of the source.
What was measured:
PI3Kγ = biological target: T1, PI3Kγ (Homo sapiens, UniProt P48736); assay: In vitro test of enzyme activity (ADP-Glo lipokinase), PI3K gamma; type: biochemical; settings: 25 μM ATP, 50 μM PIP2:3PS, 120 min
T1 construct: purchased Millipore 14-558-K
Description: (§1) 1. In Vitro Test of Enzyme Activity
(§2) The lipokinase reaction was carried out under the conditions of a suitable substrate and ATP, followed by two steps to detect the kinase activity with the ADP-Glo™ kit. The first step was terminating the kinase reaction, wherein the remaining ATP was completely removed and only ADP was left; the second step was adding kinase detection reagents to convert ADP to ATP, accompanied by luciferin/luciferase reaction. Finally, the output value of fluorescence value was converted into kinase activity.
(§3) Experimental materials and equipments:
(§4) 2. Kit: ADP-Glo™ Lipokinase and PIP2:3PS Kit (Promega # V1792)
(§5) The kit contains: 1 mM PIP2:3PS, 10× lipid dilution buffer, 1 M magnesium chloride, 10 mM ATP, 10 mM ADP, ADP-Glo reagent, detection buffer and detection substrate.
(§6) 3. Reaction plate: OptiPlate-384, white and transparent (PerkinElmer #6007299).
(§7) 1. 10× reaction buffer: 500 mM HEPES, pH 7.5, 500 mM NaCl, 9 mM MgCl2; BSA: 10% stock solution, homemade.
(§8) 2. Final test system conditions: 1× reaction system: 50 mM HEPES, 50 mM NaCl, 3 mM MgCl2, 0.01% BSA (freshly prepared on the day of the experiment), 1% DMSO (v/v)+/−compound
(§9) 3. Reaction system: 3 μL mixture of the enzyme and the substrate (1:1)+2 μL ATP/MgCl2 mixture+5 μL ADP-Glo reagent+10 μL detection reagent.
(§10) The detailed experimental procedures are as follows:
(§11) 1. Compound dilution: 50 nL 100×compound/DMSO was transferred to the test well plate with Echo. • For PI3Kα, the compound was diluted three-fold from the highest concentration of 0.111 mM for a total of 10 concentrations. • For PI3Kβ/PI3Kδ/PI3Kγ, the compound was three-fold diluted from the highest concentration of 1.11 mM for a total of 10 concentrations.
(§12) (1) The compound to be tested was prepared and 50 nL of 100 plus compound solution or DMSO was added to the corresponding well plate.
(§13) (2) 3.33 plate reaction buffer was prepared.
(§14) (3) 3.33 solution PIP2:3PS was prepared, PIP2:3PS was thawed for at least 1 minute before use.
(§15) (4) 2.5 mM containing 5.25 mM MgCl2 was prepared.
(§16) (5) 3.33 PI3Kα/PI3Kβ/PI3Kδ/PI3Kγ solution was prepared.
(§17) (6) The lipokinase solution and the PIP2:3PS solution were mixed in a volume ratio of 1:1.
(§18) (7) 3.33: lipokinase buffer and PIP2:3PS solution were mixed in a volume ratio of 1:1.
(§19) (8) 3 μL of buffer solution and PIP2:3PS were added to the first and the second columns of the well plate.
(§20) (9) 3 μL of the mixed solution of the enzyme and PIP2:3PS was added to the wells except the first and the second columns, centrifuged for 10 seconds (1000 rpm) and incubated at 23° C. for 20 minutes.
(§21) (10) 2 μL […] was added and well was shaken.
(§22) (11) The well plate was covered and shaken for about 30 s, then the well plate was incubated at 23° C. for 2 hours.
(§23) (12) 5 μL of ADP-Glo reagent containing 10 mM MgCl2 was added.
(§24) (13) The well plate was centrifuged at 1000 rpm for 10 seconds, and the well plate was then covered, shaken for about 30 seconds, and incubated at 23° C. for 60 minutes.
(§25) (14) 10 μL kinase detection reagent was added.
(§26) (15) The well plate was centrifuged at 1000 rpm for 10 seconds, and then incubated at 23° C. for 60 minutes.
(§27) (16) The fluorescence value was measured on the Envision instrument.

[1] = tested on: phosphorylation of PI3K downstream protein Akt in MCF7 cells; assay: In vitro test of cells activity: ELISA of Akt phosphorylation in MCF7 cells; type: cell-based; settings: 2 h compound, insulin 10 μg/mL stimulation, pAkt ELISA, read-out: MCF7 Cell IC50
Description: 2. In vitro test of cells activity
By the method of ELISA, the inhibition level of the test compound on the phosphorylation of PI3K downstream protein Akt in the signaling pathway was determined in MCF7 cells line to reflect the cells activity of the compound.
Cell culture medium: complete cell culture medium (RPMI 1640+10% serum+1% L-glutamine+1% double antibody)
Serum-free medium (without serum, RPMI 1640+1% L-glutamine+1% double antibody)
The detailed procedures areas follows:
(1) MCF7 cells (ATCC® HTB-22™) were inoculated into a 96-well plate at 100 μL of cell complete medium per well (2.5*10^4 cells per well), and the cells were incubated at 37° C. and 5% CO2 for 24 hours.
(2) The complete cell culture medium was replaced with 100 μL of serum-free medium, and incubated for starvation overnight.
(3) The compound was prepared (The initial concentration of the compound is 1 mM, which was subjected to a three-fold dilution in 10 concentrations, and the compound of each concentration was then diluted 100-fold with serum-free medium). 25 μL of the diluted compound was added to the cells orifice plate.
(4) The cells were incubated at 37° C. and 5% CO2 for 2 hours.
(5) The cells in the well plate were stimulated with 10 μg/mL insulin (Sigma # I9278-5 mL), incubated for 30 minutes, and then centrifuged at 1000 rpm for 5 minutes at room temperature.
(6) 250 μL of 1× balanced salt solution (Invitrogen, #14065-056, 4° C., containing 1 mM/L Na3VO4) was added to each well to wash the cells once.
(7) 100 μL of lysis buffer (trimethylolaminomethane hydrochloride, Invitrogen, #15567-1000 ml) was added to each well, shaken at 4° C. for 60 minutes, and then centrifuged at 4000 rpm for 4 minutes.
(8) The following procedures were carried out according to the instructions of ELISA kit (TGR BioSciences # EKT002).

PI3Kδ = biological target: T2, PI3Kδ (Homo sapiens, UniProt O00329); assay: In vitro test of enzyme activity (ADP-Glo lipokinase), PI3K delta; type: biochemical; settings: 40 μM ATP, 50 μM PIP2:3PS, 120 min
T2 construct: purchased Millipore 14-604-K
T2 sequence (O00329 whole entry): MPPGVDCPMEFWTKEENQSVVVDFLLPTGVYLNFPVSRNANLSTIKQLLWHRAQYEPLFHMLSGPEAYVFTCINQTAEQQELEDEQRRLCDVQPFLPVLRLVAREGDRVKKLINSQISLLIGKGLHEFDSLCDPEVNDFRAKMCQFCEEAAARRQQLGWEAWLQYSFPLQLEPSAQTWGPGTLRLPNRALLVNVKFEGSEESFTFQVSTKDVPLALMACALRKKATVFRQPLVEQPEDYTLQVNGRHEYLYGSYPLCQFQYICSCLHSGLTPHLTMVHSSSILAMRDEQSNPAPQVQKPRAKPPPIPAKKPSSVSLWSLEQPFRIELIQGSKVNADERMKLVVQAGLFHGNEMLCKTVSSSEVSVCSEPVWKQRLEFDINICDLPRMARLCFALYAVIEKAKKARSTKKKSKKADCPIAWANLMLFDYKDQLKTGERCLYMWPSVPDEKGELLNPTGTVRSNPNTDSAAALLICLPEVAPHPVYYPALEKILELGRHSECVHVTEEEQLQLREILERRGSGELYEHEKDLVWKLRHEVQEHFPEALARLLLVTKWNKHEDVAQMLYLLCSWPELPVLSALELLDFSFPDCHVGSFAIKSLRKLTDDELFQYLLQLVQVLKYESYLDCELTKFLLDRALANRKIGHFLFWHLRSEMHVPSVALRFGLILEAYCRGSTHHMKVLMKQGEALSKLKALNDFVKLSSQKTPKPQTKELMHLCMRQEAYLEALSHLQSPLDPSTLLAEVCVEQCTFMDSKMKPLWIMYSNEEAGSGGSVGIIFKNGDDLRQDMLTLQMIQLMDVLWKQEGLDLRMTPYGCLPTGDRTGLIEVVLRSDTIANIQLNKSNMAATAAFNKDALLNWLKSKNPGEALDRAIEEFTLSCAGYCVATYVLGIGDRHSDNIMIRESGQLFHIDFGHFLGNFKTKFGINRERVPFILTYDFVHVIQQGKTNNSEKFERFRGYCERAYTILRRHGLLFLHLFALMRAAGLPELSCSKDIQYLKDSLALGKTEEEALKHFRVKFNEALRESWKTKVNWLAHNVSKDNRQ
T2 sequence (P27986 whole entry partner): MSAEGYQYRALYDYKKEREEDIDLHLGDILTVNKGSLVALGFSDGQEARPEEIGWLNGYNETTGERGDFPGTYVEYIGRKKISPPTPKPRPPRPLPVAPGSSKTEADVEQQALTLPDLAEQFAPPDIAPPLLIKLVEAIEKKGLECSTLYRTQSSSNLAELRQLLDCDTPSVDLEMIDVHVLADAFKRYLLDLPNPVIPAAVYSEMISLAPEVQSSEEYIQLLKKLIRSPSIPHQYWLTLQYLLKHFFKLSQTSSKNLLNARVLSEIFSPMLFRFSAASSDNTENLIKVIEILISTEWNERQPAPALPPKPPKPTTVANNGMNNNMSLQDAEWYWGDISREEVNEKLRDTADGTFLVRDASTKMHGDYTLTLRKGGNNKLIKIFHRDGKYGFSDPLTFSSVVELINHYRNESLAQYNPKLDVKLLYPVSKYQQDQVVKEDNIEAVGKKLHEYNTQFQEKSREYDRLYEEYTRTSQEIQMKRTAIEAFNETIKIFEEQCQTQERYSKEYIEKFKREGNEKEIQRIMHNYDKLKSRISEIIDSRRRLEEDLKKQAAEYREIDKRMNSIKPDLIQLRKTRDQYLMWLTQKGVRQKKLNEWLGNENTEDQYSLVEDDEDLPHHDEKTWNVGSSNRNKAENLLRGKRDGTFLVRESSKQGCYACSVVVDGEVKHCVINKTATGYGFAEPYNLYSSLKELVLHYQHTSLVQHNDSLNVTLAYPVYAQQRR
Description: as §1, §2, §3, §4, §5, §6, §7, §8, §9, §10, §11, §12, §13, §14, §15, §16, §17, §18, §19, §20, §21, §22, §23, §24, §25, §26, §27

PI3Kβ = biological target: T3, PI3Kβ (Homo sapiens, UniProt P42338); assay: In vitro test of enzyme activity (ADP-Glo lipokinase), PI3K beta; type: biochemical; settings: 40 μM ATP, 50 μM PIP2:3PS, 120 min
T3 construct: purchased Promega V1751
T3 sequence (P42338 whole entry): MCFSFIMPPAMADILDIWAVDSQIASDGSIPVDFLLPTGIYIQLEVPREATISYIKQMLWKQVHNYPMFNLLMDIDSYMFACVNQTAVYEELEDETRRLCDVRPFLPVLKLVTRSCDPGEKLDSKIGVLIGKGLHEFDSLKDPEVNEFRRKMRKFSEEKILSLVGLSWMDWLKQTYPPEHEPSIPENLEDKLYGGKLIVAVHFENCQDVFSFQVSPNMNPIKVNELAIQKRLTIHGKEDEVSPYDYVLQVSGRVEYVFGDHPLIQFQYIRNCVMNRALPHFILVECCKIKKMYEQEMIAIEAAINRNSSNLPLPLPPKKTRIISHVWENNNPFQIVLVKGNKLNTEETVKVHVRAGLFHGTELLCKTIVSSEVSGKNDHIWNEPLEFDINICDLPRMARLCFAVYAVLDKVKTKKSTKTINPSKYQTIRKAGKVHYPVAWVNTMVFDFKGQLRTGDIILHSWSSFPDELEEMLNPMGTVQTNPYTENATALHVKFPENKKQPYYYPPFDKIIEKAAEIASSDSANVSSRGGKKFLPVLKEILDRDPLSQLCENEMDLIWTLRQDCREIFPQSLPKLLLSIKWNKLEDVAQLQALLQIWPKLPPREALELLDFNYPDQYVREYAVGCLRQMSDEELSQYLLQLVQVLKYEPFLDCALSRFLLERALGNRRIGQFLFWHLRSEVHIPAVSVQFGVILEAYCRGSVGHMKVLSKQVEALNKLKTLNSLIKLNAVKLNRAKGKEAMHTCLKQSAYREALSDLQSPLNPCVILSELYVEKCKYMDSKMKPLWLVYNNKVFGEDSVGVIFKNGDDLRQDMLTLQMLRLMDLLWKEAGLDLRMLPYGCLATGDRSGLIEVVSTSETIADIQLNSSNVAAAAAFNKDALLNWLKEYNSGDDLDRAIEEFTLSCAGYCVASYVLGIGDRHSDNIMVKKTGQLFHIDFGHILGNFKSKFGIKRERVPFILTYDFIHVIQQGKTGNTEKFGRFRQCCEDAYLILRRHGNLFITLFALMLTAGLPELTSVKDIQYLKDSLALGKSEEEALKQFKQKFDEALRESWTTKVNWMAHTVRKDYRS
T3 sequence (P27986 whole entry partner): as the sequence (P27986 whole entry partner) above
Description: as §1, §2, §3, §4, §5, §6, §7, §8, §9, §10, §11, §12, §13, §14, §15, §16, §17, §18, §19, §20, §21, §22, §23, §24, §25, §26, §27

PI3Kα = biological target: T4, PI3Kα (Homo sapiens, UniProt P42336); assay: In vitro test of enzyme activity (ADP-Glo lipokinase), PI3K alpha; type: biochemical; settings: 40 μM ATP, 50 μM PIP2:3PS, 120 min
T4 construct: purchased Millipore 14-602-K
T4 sequence (P42336 whole entry): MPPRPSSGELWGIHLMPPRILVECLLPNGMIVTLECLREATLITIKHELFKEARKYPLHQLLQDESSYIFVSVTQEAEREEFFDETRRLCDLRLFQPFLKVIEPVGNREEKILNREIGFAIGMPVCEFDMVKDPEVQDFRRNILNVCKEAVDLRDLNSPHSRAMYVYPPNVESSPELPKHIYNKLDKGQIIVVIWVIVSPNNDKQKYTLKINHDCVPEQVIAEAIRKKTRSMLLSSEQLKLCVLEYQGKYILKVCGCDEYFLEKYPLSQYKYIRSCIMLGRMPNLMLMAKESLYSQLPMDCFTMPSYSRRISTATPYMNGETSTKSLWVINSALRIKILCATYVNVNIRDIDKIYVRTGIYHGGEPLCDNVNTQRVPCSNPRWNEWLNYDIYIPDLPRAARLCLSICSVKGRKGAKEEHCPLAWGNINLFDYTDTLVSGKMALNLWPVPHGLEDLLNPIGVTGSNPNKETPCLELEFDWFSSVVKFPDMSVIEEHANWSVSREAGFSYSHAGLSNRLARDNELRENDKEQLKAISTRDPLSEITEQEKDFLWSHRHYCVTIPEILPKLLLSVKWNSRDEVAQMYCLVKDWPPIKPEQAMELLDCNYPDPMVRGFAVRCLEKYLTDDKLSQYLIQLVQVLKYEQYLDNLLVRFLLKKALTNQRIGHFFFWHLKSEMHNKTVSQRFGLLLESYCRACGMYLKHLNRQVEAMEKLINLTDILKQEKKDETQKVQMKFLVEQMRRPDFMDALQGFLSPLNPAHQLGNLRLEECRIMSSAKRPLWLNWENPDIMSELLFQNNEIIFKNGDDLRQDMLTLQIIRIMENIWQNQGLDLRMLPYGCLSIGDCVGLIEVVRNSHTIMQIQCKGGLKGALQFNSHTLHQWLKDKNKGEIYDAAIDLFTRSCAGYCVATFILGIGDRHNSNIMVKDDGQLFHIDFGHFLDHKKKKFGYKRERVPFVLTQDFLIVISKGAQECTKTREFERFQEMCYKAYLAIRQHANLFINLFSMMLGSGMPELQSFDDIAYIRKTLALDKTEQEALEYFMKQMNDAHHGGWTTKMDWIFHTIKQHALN
T4 sequence (P27986 whole entry partner): as the sequence (P27986 whole entry partner) above
Description: as §1, §2, §3, §4, §5, §6, §7, §8, §9, §10, §11, §12, §13, §14, §15, §16, §17, §18, §19, §20, §21, §22, §23, §24, §25, §26, §27

[2] = In vivo DMPK study in mice after a single administration; parameters: species or system female Balb/c mice; settings: oral, 10 mpk
Description: Experimental objective: female Balb/c mice were used as the test animals, and the blood concentration of the compound was determined and the pharmacokinetic behavior was evaluated after a single administration.
Experimental operation: 12 healthy adult female Balb/c mice were selected, 6 for intravenous injection group and 6 for oral administration group. The compound to be tested was mixed with an appropriate amount of intravenous injection group vehicle (10% HP-betaCD: 10% solutol=1:1, pH=8), vortex-mixed and sonicated to prepare a 1.0 mg/mL clear solution, followed by filtration for subsequent use; the vehicle in the oral group was 0.5% MC/0.2% Tw80. After the test compound and the vehicle were mixed, it was vortex-mixed and sonicated to prepare a 1.0 mg/mL homogeneous suspension for subsequent use. After an intravenous administration at a dose of 1 mg/kg or an oral administration at the dose of 2 mg/kg and 10 mg/kg, whole blood of the mice was collected for a certain period of time to prepare plasma. The drug concentration was analyzed by LC-MS/MS method, and Phoenix WinNonlin software was used (Pharsight, USA) to calculate the pharmacokinetic parameters.
Cmax: the highest concentration of the drug in the body; F %: oral bioavailability; Oral DNAUC: area under the dose normalization curve; Vd: apparent volume of distribution; Cl: clearance rate; T1/2: half-life.

T1 sequence (P48736 whole entry): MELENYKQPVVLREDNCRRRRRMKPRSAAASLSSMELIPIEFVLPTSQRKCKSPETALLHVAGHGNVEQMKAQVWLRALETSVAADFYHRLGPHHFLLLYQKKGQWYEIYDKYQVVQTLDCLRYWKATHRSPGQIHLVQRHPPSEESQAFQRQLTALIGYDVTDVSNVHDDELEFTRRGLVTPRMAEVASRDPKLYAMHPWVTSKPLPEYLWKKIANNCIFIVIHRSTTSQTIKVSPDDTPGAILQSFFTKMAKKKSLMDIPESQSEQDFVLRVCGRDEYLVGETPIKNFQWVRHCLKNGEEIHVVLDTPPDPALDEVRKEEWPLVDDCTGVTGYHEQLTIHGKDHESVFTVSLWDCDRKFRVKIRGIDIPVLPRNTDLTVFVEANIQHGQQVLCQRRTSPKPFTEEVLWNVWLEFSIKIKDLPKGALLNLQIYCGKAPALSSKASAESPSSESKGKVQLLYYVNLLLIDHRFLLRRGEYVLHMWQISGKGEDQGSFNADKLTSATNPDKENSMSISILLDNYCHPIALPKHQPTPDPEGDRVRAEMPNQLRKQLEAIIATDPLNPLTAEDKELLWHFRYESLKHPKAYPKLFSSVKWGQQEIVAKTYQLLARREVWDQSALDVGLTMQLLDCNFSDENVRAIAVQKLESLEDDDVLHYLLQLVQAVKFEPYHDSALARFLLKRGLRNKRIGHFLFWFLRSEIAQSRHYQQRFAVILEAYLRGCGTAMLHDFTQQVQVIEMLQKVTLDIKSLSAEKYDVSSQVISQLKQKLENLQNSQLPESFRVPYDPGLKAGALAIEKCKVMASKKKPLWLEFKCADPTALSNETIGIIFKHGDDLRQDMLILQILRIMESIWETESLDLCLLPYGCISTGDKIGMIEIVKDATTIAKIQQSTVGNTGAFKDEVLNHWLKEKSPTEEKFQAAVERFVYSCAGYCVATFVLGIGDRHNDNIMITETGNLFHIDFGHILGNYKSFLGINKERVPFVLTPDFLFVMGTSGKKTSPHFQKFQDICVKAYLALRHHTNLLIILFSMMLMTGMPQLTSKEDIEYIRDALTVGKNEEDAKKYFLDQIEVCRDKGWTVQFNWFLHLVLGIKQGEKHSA

Row | SMILES | IC50 (PI3Kγ) | IC50 ([1]; Homo sapiens, MCF7, 2 h) | IC50 (PI3Kδ) | IC50 (PI3Kβ) | IC50 (PI3Kα) | Cmax [2] | Oral DNAUC (area under the dose normalization curve) [2] | IC50 [1]
1 | Cc1nc(C)c(S(=O)(=O)Nc2cc(-c3ccc4ncn(CCCC(=O)NC(C)C)c(=O)c4c3)cnc2C)s1 [WX006] | 19.6 nM | 279 nM | 4.53 nM | 279 nM | 1 nM |  |  | 
2 | CNC(=O)C(C)Cn1cnc2ccc(-c3cnc(OC)c(NS(=O)(=O)c4cc(Cl)ccc4C)c3)cc2c1=O (single isomer, unassigned) [WX222] | 29.7 nM |  | 20.7 nM | 361 nM | 1.8 nM | 6.88 µM | 1300 nM · h/mpk | 12.6 nM
3 | CNC(=O)[C@@H](C)Cn1cnc2ccc(-c3cnc(OC)c(NS(=O)(=O)c4cc(F)cc(F)c4)c3)cc2c1=O [WX192] | 37.8 nM |  | 37.5 nM | 633 nM | 5.39 nM |  |  | 53.6 nM
4 | COc1ncc(-c2ccc3ncn(CC(N)C(N)=O)c(=O)c3c2)cc1NS(=O)(=O)c1ccc(F)cc1Cl (centres unmarked) [WX040] | 39.9 nM | 134 nM | 25.6 nM | 183 nM | 5.4 nM |  |  | 
5 | COc1ncc(-c2ccc3ncn(CC4(C(N)=O)CC4)c(=O)c3c2)cc1NS(=O)(=O)c1ccc(F)cc1Cl [WX023] | 20.6 nM | 39.9 nM | 2.02 nM | 82.4 nM | 5.71 nM |  |  | 

Stronger by IC50 (PI3Kγ), values ahead:

Row | IC50 (PI3Kγ) | IC50 ([1]; Homo sapiens, MCF7, 2 h) | IC50 (PI3Kδ) | IC50 (PI3Kβ) | IC50 (PI3Kα) | Cmax [2] | Oral DNAUC (area under the dose normalization curve) [2] | IC50 [1] | SMILES
6 | 8.21 nM |  | 6.34 nM | 166 nM | 0.95 nM | 25.9 µM | 4867 nM · h/mpk | 51.4 nM | CNC(=O)C(C)Cn1cnc2ccc(-c3cnc(OC)c(NS(=O)(=O)c4cc(Cl)ccc4Cl)c3)cc2c1=O (single isomer, unassigned) [WX183]
7 | 5.29 nM | 318 nM | 85 nM | 426 nM | 7.16 nM |  |  |  | COc1ncc(-c2ccc3ncn(CC(C)C(=O)O)c(=O)c3c2)cc1NS(=O)(=O)c1ccc(F)cc1Cl (single isomer, unassigned) [R003, reference compound]
8 | 2.03 nM |  | 0.47 nM | 19.9 nM | 0.29 nM |  |  | 71.5 nM | COc1ncc(-c2ccc3ncn(CC(C)C(N)=O)c(=O)c3c2)cc1NS(=O)(=O)c1sc(C)nc1C (single isomer, unassigned) [WX024]
